Measured values as given in PubChem BioAssay AID1996.
Values after ≈ are worked out from the molar mass of the structure shown.

Conditions: buffer; pH 7.4; 200.0 µM
COc1ccc2[nH]c(C(=O)Nc3ncc(C)cc3Br)cc2c1 showed a solubility kinetic of 6.1 µg/mL (≈ 16.9 µM). In the case of Cc1nnc(SCC(=O)Nc2ccc(F)cc2)n(N)c1=O, the solubility kinetic is reported as greater than 46.4 µg/mL. With Nc1cccc(Oc2ccc3c(c2)C(=O)N(CC2CCCO2)C3=O)c1 (stereo not given) the solubility kinetic was 41.4 µg/mL (≈ 122 µM). Cc1ccc(C(=O)NC2CCCCNC2=O)cc1C (stereo not given) showed a solubility kinetic greater than 39.1 µg/mL. Cc1ccc(C(=O)Nc2ccc3[nH]c(=O)[nH]c3c2)c(C)c1 showed a solubility kinetic of 3.9 µg/mL (≈ 13.9 µM). Work on Cc1ccc(C)c(NC(=O)c2cc(C)nc3ccccc23)c1 yielded a solubility kinetic of 33.5 µg/mL (≈ 115 µM). COc1ccc(NC(=O)CSc2nccn2Cc2ccco2)c(OC)c1 gave a solubility kinetic of 51.9 µg/mL (≈ 139 µM). For Cn1ccsc1=NC(=O)c1ccc(Cl)c([N+](=O)[O-])c1, the solubility kinetic was 0.5 µg/mL (≈ 1.68 µM). Compound Cc1ccc(SCCc2cc[n+](CC(=O)c3ccccc3)cc2)cc1 has a solubility kinetic of 50.8 µg/mL. Work on CCOC(=O)c1c(/N=C/c2ccc(C)cc2O)sc2c1CCN(C)C2 yielded a solubility kinetic of 11.6 µg/mL (≈ 32.4 µM). O=C1Cc2cc(S(=O)(=O)Nc3ccc(N4CCOCC4)cc3)ccc2N1 gave a solubility kinetic greater than 56 µg/mL. In the case of O=C(/C=C/c1ccccc1[N+](=O)[O-])c1ccc(F)cc1, the solubility kinetic is reported as 4.5 µg/mL (≈ 16.6 µM). Work on COC(=O)c1sc(NC(=O)COc2c(C)cccc2C)nc1C yielded a solubility kinetic of 0.4 µg/mL (≈ 1.2 µM). For CCN1CCN(C(=O)c2ccc(C(F)(F)F)cc2)CC1, the solubility kinetic was 40.6 µg/mL (≈ 142 µM). With CC(=O)OCC(=O)Nc1ccc(Br)c(C)c1 the solubility kinetic was greater than 42.9 µg/mL. With CSc1ccc(Cl)c(C(=O)NCCCn2ccnc2)c1 the solubility kinetic was greater than 46.5 µg/mL. Compound CCC(=O)Nc1ccc2c(c1)nc1n2CCN(CCOC)C1 has a solubility kinetic greater than 45.4 µg/mL. Cc1ccc(C(=O)OCC(=O)NC(=O)Cc2ccccc2)c(O)c1 showed a solubility kinetic of 12 µg/mL (≈ 36.7 µM). For O=C(c1cccc(Br)c1)N1CCN(c2ccccn2)CC1, the solubility kinetic was greater than 51.9 µg/mL. For Cc1ccc(N2CCN(C(=O)Nc3cccc([N+](=O)[O-])c3)CC2C)cc1 (stereo not given), the solubility kinetic was 22 µg/mL (≈ 62.1 µM). CSCCC(NC(=O)COc1ccccc1)C(=O)O (stereo not given) gave a solubility kinetic of 31.7 µg/mL (≈ 112 µM). In the case of CC1CN(C(=O)COC(=O)/C=C/c2cccc([N+](=O)[O-])c2)CC(C)O1 (stereo not given), the solubility kinetic is reported as 34.2 µg/mL (≈ 98.2 µM). CN(C)c1ccc(P(=O)(OC2CCCCC2)C(O)c2ccccn2)cc1 (stereo not given) showed a solubility kinetic greater than 56.2 µg/mL. In the case of O=c1[nH]cnc2onc(-c3ccc(F)cc3)c12, the solubility kinetic is reported as greater than 34.7 µg/mL. Work on O=C(CN1C(=O)COc2ccccc21)N1CCOCC1 yielded a solubility kinetic greater than 41.4 µg/mL. Compound CC(=O)OC(C(=O)NC1CCCCC1)c1ccccc1F (stereo not given) has a solubility kinetic greater than 44 µg/mL. Compound CC(=O)c1sc2nc(-c3ccco3)ccc2c1N has a solubility kinetic of 6 µg/mL (≈ 23.2 µM). With COc1ccccc1NS(=O)(=O)c1cccc(C(=O)N2CCCC2)c1 the solubility kinetic was greater than 54.1 µg/mL. In the case of O=c1cnc2ccccc2n1Cc1ccccc1C(F)(F)F, the solubility kinetic is reported as 43.1 µg/mL (≈ 142 µM). CCc1ccc(C(C)NC(=S)NCc2ccc(F)cc2)cc1 (stereo not given) showed a solubility kinetic of 1 µg/mL (≈ 3.16 µM). CCOC(=O)c1sc(-c2ccc(Cl)cc2Cl)nc1O gave a solubility kinetic of 28.2 µg/mL (≈ 88.6 µM). With CCOC(=O)C1=C(Nc2ccc(Cl)cc2)OCC1=O the solubility kinetic was greater than 42.3 µg/mL. For CSc1nsc(SC)c1NC(=O)Nc1ccccc1C, the solubility kinetic was 1 µg/mL (≈ 3.07 µM). With Cc1ccc(S(=O)(=O)NCC[C@@]2(C)C3CCC2(C)C(=O)C3)cc1 (stereo not given in full) the solubility kinetic was greater than 50.3 µg/mL. Compound O=C(CNC(=O)c1ccc(Cl)cc1)NC(CO)c1ccccc1 (stereo not given) has a solubility kinetic of 32.6 µg/mL (≈ 98 µM). CC(=O)N1CCN(S(=O)(=O)c2cccc(C(=O)NCc3ccc(F)cc3)c2)CC1 gave a solubility kinetic greater than 62.9 µg/mL. CC(C)(C)C(=O)NC(c1ccccc1)c1c(O)ccc2ccccc12 (stereo not given) showed a solubility kinetic of 0.9 µg/mL (≈ 2.7 µM). Compound C=CCNC(=S)Nc1ccc2cn[nH]c2c1 has a solubility kinetic greater than 34.8 µg/mL. Cc1ccc(N2CN(CCC3=CCCCC3)CNC2=S)cc1 showed a solubility kinetic of 5.1 µg/mL (≈ 16.2 µM). Cc1ncc([N+](=O)[O-])n1CC(=O)Nc1ccc(F)c(F)c1 gave a solubility kinetic of 6.4 µg/mL (≈ 21.6 µM). In the case of CSc1ncnc2sc(C)c(C)c12, the solubility kinetic is reported as 1.3 µg/mL (≈ 6.18 µM). In the case of CC1(C)CC2CC(C)(CN2C(=S)Nc2ccccc2)C1 (stereo not given), the solubility kinetic is reported as 41.6 µg/mL (≈ 144 µM). In the case of Cc1cc2c(cc1C)C(c1ccccc1OC(C)C)CC(=O)N2 (stereo not given), the solubility kinetic is reported as less than 0.7 µg/mL. Compound OCCCNc1nc(-c2ccc(Cl)cc2)nc2ccccc12 has a solubility kinetic of 1.8 µg/mL (≈ 5.74 µM). Work on Cc1nc2cc(Cl)ccc2c(=O)n1Cc1ccncc1 yielded a solubility kinetic greater than 42.9 µg/mL. Cc1cccnc1NC(=O)C1COc2ccccc2O1 (stereo not given) showed a solubility kinetic of 40.1 µg/mL (≈ 148 µM). Cc1ccc(CCN2CC(C(=O)NCCC(C)C)CC2=O)cc1 (stereo not given) showed a solubility kinetic of 45.7 µg/mL (≈ 144 µM). Cc1csc(NC(=O)c2cc[n+]([O-])cc2)n1 gave a solubility kinetic greater than 35.3 µg/mL. With O=C(c1ccccc1)N1CCN(c2ncccn2)CC1 the solubility kinetic was greater than 40.2 µg/mL. In the case of CC(C)CNC(=O)CN1C(=O)NC2(CCc3ccccc32)C1=O (stereo not given), the solubility kinetic is reported as greater than 47.3 µg/mL. CC(=O)Nc1ccc(S(=O)(=O)N2C(C)CCCC2C)cc1 (stereo not given) gave a solubility kinetic greater than 46.6 µg/mL. With O=C(c1cc(-c2ccccc2)on1)N1CCC2(CC1)OCCO2 the solubility kinetic was greater than 47.2 µg/mL. Compound O=C1/C(=C/c2cccnc2)SC(=S)N1CCc1ccccc1 has a solubility kinetic of less than 0.3 µg/mL. Work on COc1ccc(CC2SC(N)=NC2=O)cc1 (stereo not given) yielded a solubility kinetic greater than 35.4 µg/mL. O=C(O)CN1CCN(Cc2ccc(F)cc2)C1=O showed a solubility kinetic greater than 37.8 µg/mL. For O=C(O)c1ccc2c(c1)C(=O)N(c1cccc3ccccc13)C2=O, the solubility kinetic was greater than 47.6 µg/mL. O=C(NCc1cccc(Cl)c1)c1cc(=O)[nH]c2ccccc12 gave a solubility kinetic of 1.8 µg/mL (≈ 5.76 µM). With CCOC(=O)C1CCCN(C(=S)NC2CCCCC2)C1 (stereo not given) the solubility kinetic was greater than 44.8 µg/mL. Compound COc1ccccc1C(=O)C1CCCN(Cc2ccc3c(c2)OCCO3)C1 (stereo not given) has a solubility kinetic of 36.7 µg/mL (≈ 99.9 µM). In the case of COc1ccccc1C(=O)Nc1nc2ccccc2s1, the solubility kinetic is reported as less than 0.3 µg/mL.
